For one assay, the target named is human recombinant PARG (Homo sapiens (Human), UniProt Q86W56). The assay is described as follows: PARG Activity Assay. The conditions noted are these: recombinant human PARG 0.0185 nM, 1 hour pre-incubation, poly (ADP-ribose) substrate-coated plate, Abs 450. Type of assay: biochemical. The method, then:
In order to evaluate the PARG inhibitory activity of the present compound, the inhibitory activity of each test compound against human recombinant PARG was measured. The specific procedure is described below.
Test compound was dissolved in dimethyl sulfoxide and prepared a 10 mM stock solution.
PARG Activity Assay was performed in Streptavidin-coated 96-well plates. […] The substrate solution was added to the 96-well plate at the volume of 200 micro liter per well and incubated for 3 hours at room temperature. After the incubation, the substrate solution was discarded and assay plate was washed 4 times with 220 micro liter of PBS containing 0.1% Tween20 (PBST). […] The diluted enzyme solution was pre-incubated with compounds for 1 hour at room temperature in a 96-well plate and transferred 100 micro liter per well to the poly (ADP-ribose) substrate-coated assay plate. The plate was incubated for 1 hour at 25° C. and then washed 4 times with 220 micro liters of PBST. For the detection of non-digested poly (ADP-ribose) polymer on the plate, mouse anti-poly (ADP-ribose) antibody diluted with 0.2% BSA containing PBS was added 100 micro liters per well and incubated 1 hour at room temperature. Plate was washed 4 times with TBST and 100 micro liter of HRP-labeled anti-mouse Ig antibody was added to the wells. Plate was incubated for 30 minutes at room temperature and then washed 4 times with PBST. For the detection 100 micro liters of TMB substrate solution was added to the wells. After sufficient color development, reaction was stopped by addition of 50 micro liter of 0.2 M […]. The 450 nm absorbance (Abs 450) of each well was read with a micro plate reader. The assay was performed by duplicated and average of 2 independent assays were used for the determination of PARG inhibitor y activity.
Wells treated with dimethyl sulfoxide instead of test compound solution were designated as a Negative Control of assay
Wells treated with 0.2% BSA containing PBS instead of recombinant human PARG protein and with dimethyl sulfoxide instead of test compound solution were designated as a Positive Control of assay.
The PARG Inhibitory Activity (%) was determined by the following formulation.
PARG Inhibitory Activity (%)=[(AbsX−AbsA)/(AbsB−AbsA)]×100
(wherein, • AbsA is absorbance (Abs 450) of Negative Control wells • AbsB is absorbance (Abs 450) of Positive Control wells • AbsX is absorbance (Abs 450) of wells treated with test compound.)
In Table, Ex indicates an Example number shown below.

The subject of the next assay is Kuramochi cells. The assay is described as follows: Synthetic Lethality Assay of Cancer Cell. It counts as cell-based. As to conditions: Homo sapiens; growth inhibition of Kuramochi cells in the presence of methyl methanesulfonate (MMS), 96 hours, CellTiter-Glo. On the technique in general: ATP-based viability assays read luminescence as a measure of living cells.

pIC50: −log10 of the molar value.

In general, pIC50 refers to the negative decadic logarithm of the IC50, by convention in mol/L.

Sequence of human recombinant PARG (Q86W56 whole entry): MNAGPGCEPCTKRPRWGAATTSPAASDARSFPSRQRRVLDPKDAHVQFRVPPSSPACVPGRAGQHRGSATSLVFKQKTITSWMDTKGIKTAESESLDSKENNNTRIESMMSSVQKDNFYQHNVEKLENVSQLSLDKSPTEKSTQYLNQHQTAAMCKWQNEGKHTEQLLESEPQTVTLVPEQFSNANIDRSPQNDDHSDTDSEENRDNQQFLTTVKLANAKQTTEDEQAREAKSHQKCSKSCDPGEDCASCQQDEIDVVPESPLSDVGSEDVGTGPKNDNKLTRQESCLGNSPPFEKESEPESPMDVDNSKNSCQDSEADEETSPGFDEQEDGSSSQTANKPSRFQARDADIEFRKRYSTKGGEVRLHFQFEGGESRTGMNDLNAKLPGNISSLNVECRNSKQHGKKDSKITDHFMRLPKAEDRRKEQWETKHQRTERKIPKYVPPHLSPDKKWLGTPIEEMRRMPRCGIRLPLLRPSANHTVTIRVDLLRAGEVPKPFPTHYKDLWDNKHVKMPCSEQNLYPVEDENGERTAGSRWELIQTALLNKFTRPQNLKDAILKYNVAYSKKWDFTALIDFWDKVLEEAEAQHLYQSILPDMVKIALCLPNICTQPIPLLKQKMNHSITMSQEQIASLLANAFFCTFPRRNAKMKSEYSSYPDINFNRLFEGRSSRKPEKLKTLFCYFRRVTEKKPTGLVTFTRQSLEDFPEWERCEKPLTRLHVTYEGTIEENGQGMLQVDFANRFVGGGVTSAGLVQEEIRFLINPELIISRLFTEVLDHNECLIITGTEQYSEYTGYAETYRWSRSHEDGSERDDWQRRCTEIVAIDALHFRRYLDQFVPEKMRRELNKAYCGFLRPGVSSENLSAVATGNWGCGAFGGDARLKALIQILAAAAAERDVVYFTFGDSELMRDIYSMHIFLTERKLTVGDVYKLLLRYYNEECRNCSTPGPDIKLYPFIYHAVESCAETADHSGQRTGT
Experimental for Kuramochi cells: In order to evaluate the cancer cell growth inhibitory effect of the present compound, the inhibitory effect of the compound on the growth of a human ovarian cancer cell line, Kuramochi cells, was examined in the presence of methyl methanesulfonate (MMS) which is used as a DNA methylating agent.
Test compound was dissolved in dimethyl sulfoxide and prepared a 10 mM compound solution. The compound solution was then further serially diluted with dimethyl sulfoxide to prepare a concentration of 400 times test compound solution from 6 mM to 1 μM.
Kuramochi cells were purchased from the JCRB cell bank and cultured at 37° C. in the presence of 5% of CO2 using the complete medium described above. […]
Cell viability after 96 hours was measured by using CellTiter-Glo (registered trademark) Luminescent Cell Viability Assay (manufactured by Promega Corporation) according to the recommended usage.
The luminescence intensity was measured by using a luminescence detection plate reader (Envision, manufactured by PerkinElmer Inc.). The cell viability of each well was calculated as a relative value (%) of the luminescence intensity of each well to which each test compound with each concentration was added in a case where the luminescence intensity of a well to which dimethyl sulfoxide was added instead of the test compound was defined as 100%. […]

For the compound `CN(c1ccc(Cn2c(=O)n(Cc3cnn(C)c3)c(=O)c3cc(S(=O)(=O)NC4(C)CC4)sc32)cc1F)C1CC1` [Ex 74], at human recombinant PARG, the pIC50 was 6.68.
Regarding `COCCN(C)c1ccc(Cn2c(=O)n(Cc3cnn(C)c3)c(=O)c3cc(S(=O)(=O)NC4(C)CC4)sc32)cc1F` [Ex 75], the pIC50 at human recombinant PARG is 6.89.
As for `CN(CCO)c1ccc(Cn2c(=O)n(Cc3cnn(C)c3)c(=O)c3cc(S(=O)(=O)NC4(C)CC4)sc32)cc1F` [Ex 76], the pIC50 on human recombinant PARG is 7.24.
`COCCNc1ncc(Cn2c(=O)n(Cc3cnn(C)c3)c(=O)c3cc(S(=O)(=O)NC4(C)CC4)sc32)cn1` [Ex 79]: the pIC50 on human recombinant PARG is 7.15.
Turning to `Cn1cc(Cn2c(=O)c3cc(S(=O)(=O)NC4(C)CC4)sc3n(Cc3cnc(NCCO)nc3)c2=O)cn1` [Ex 80], the pIC50 at human recombinant PARG was 6.38.
With `Cn1cc(Cn2c(=O)c3cc(S(=O)(=O)NC4(C)CC4)sc3n(Cc3ccc(N4CCOCC4)nc3)c2=O)cn1` [Ex 81], at human recombinant PARG, the pIC50 is 6.70.
Regarding `Cn1cc(Cn2c(=O)c3cc(S(=O)(=O)NC4(C)CC4)sc3n(Cc3ccc(N4CCCC4)nc3)c2=O)cn1` [Ex 82], the pIC50 on human recombinant PARG was 7.01.
Take `Cn1cc(Cn2c(=O)c3cc(S(=O)(=O)NC4(C)CC4)sc3n(Cc3ccc(N4CC[C@H](O)C4)nc3)c2=O)cn1` [Ex 83]: at human recombinant PARG, the pIC50 was 6.96.
For `CO[C@H]1CCN(c2ccc(Cn3c(=O)n(Cc4cnn(C)c4)c(=O)c4cc(S(=O)(=O)NC5(C)CC5)sc43)cn2)C1` [Ex 84], the pIC50 at human recombinant PARG is 6.70.
In the case of `Cn1cc(Cn2c(=O)c3cc(S(=O)(=O)NC4(C)CC4)sc3n(Cc3ccn(C)c(=O)c3)c2=O)cn1` [Ex 85], at human recombinant PARG, the pIC50 was 6.96.
As to `CC(=O)N1CCC(Cn2c(=O)n(Cc3cnn(C)c3)c(=O)c3cc(S(=O)(=O)NC4(C)CC4)sc32)CC1` [Ex 86], at human recombinant PARG, the pIC50 is 6.80.
Consider `CN1CCC(Cn2c(=O)n(Cc3cnn(C)c3)c(=O)c3cc(S(=O)(=O)NC4(C)CC4)sc32)CC1=O` (stereo not drawn) [Ex 87], for which the pIC50 at human recombinant PARG was 6.66.
With `Cn1cc(Cn2c(=O)c3cc(S(=O)(=O)NC4(C)CC4)sc3n(Cc3ccc(=O)n(C)c3)c2=O)cn1` [Ex 88], at human recombinant PARG, the pIC50 was 7.64.
Same read-out and setting: then `COCc1cc2cc(Cn3c(=O)n(Cc4cnn(C)c4)c(=O)c4cc(S(=O)(=O)NC5(C)CC5)sc43)ccc2[nH]1` [Ex 89], with 7.89; and `Cn1cc(Cn2c(=O)c3cc(S(=O)(=O)NC4(C)CC4)sc3n(Cc3ccc(N4CC(O)C4)nc3)c2=O)cn1` [Ex 90], with 7.77; and `CCC(=O)N1CCC(n2c(=O)n(Cc3cnn(C)c3)c(=O)c3cc(S(=O)(=O)NC4(C)CC4)sc32)CC1` [Ex 93], with 6.74.
`COCCC(=O)N1CCC(n2c(=O)n(Cc3cnn(C)c3)c(=O)c3cc(S(=O)(=O)NC4(C)CC4)sc32)CC1` [Ex 94]: the pIC50 at human recombinant PARG is 6.57.
For the compound `CNCCCC(=O)N1CCC(n2c(=O)n(Cc3cnn(C)c3)c(=O)c3cc(S(=O)(=O)NC4(C)CC4)sc32)CC1` [Ex 96], the pIC50 at human recombinant PARG was 6.89.
Consider `Cc1nc(C)c(Cn2c(=O)n(Cc3cnn(C)c3)c(=O)c3cc(S(=O)(=O)NC4(C#N)CC4)sc32)s1` [Ex 101], for which the pIC50 on human recombinant PARG was 7.19.
`Cn1cc(Cn2c(=O)c3cc(S(=O)(=O)NC4(C#N)CC4)sc3n(Cc3ccc4oc(CO)cc4c3)c2=O)cn1` [Ex 102]: the pIC50 on human recombinant PARG is 7.12.
Turning to `Cn1cc(Cn2c(=O)c3cc(S(=O)(=O)NC4(C#N)CC4)sc3n(Cc3ccc(F)cc3)c2=O)cn1` [Ex 103], the pIC50 at human recombinant PARG is 6.96.
As to `Cn1cc(Cn2c(=O)c3cc(S(=O)(=O)NC4(C)CC4)sc3n(Cc3ccc4c(n3)COC4)c2=O)cn1` [Ex 109], at human recombinant PARG, the pIC50 was 7.35.
The same measure, in the same setting: under `CC(c1ccc2c(c1)COC2)n1c(=O)n(Cc2cnn(C)c2)c(=O)c2cc(S(=O)(=O)NC3(C)CC3)sc21` (stereo not drawn) [Ex 112] stands 6.85; under `Cc1cc2c(cc1Cn1c(=O)n(Cc3cnn(C)c3)c(=O)c3cc(S(=O)(=O)NC4(C)CC4)sc31)COC2` [Ex 113], 7.03; under `Cc1cc(Cn2c(=O)n(Cc3cnn(C)c3)c(=O)c3cc(S(=O)(=O)NC4(C)CC4)sc32)cc2c1COC2` [Ex 114], 7.47.
Take `Cc1c(Cn2c(=O)n(Cc3cnn(C)c3)c(=O)c3cc(S(=O)(=O)NC4(C)CC4)sc32)ccc2c1COC2` [Ex 115]: on human recombinant PARG, the pIC50 is 7.17.
As to `Cn1cc(Cn2c(=O)c3cc(S(=O)(=O)NC4(C)CC4)sc3n(Cc3ccc4[nH]c(CO)cc4c3)c2=O)cn1` [Ex 116], the pIC50 at human recombinant PARG was 7.82.
Consider `Cn1cc(Cn2c(=O)c3cc(S(=O)(=O)NC4(C)CC4)sc3n(Cc3cncc(CO)c3)c2=O)cn1` [Ex 117], for which the pIC50 on human recombinant PARG is 7.39.
As to `CN1CCc2ccc(Cn3c(=O)n(Cc4cnn(C)c4)c(=O)c4cc(S(=O)(=O)NC5(C)CC5)sc43)cc2C1=O` [Ex 118], the pIC50 on human recombinant PARG was 6.92.
Consider `Cn1cc(Cn2c(=O)c3cc(S(=O)(=O)NC4(C)CC4)sc3n(CC34CC(F)(C3)C4)c2=O)cn1` [Ex 119], for which the pIC50 on human recombinant PARG is 6.62.
As for `Cn1cc(Cn2c(=O)c3cc(S(=O)(=O)NC4(C)CC4)sc3n(CCC3(C)COC3)c2=O)cn1` [Ex 120], on human recombinant PARG, the pIC50 was 6.92.
`Cn1cc(Cn2c(=O)c3cc(S(=O)(=O)NC4(C)CC4)sc3n(Cc3ccc(F)c(OCCO)c3)c2=O)cn1` [Ex 122]: the pIC50 on human recombinant PARG is 7.77.
On the same count and under the same terms, then `COc1c(F)cc(Cn2c(=O)n(Cc3cnn(C)c3)c(=O)c3cc(S(=O)(=O)NC4(C)CC4)sc32)cc1F` [Ex 123], with 7.54; and `CNc1cc(Cn2c(=O)n(Cc3cnn(C)c3)c(=O)c3cc(S(=O)(=O)NC4(C)CC4)sc32)c(F)cc1F` [Ex 124], with 7.14.
On to `CNc1c(F)cc(Cn2c(=O)n(Cc3cnn(C)c3)c(=O)c3cc(S(=O)(=O)NC4(C)CC4)sc32)cc1F` [Ex 125], for which the pIC50 on human recombinant PARG is 7.70.
Turning to `COC(=O)c1cc(Cn2c(=O)n(Cc3cnn(C)c3)c(=O)c3cc(S(=O)(=O)NC4(C)CC4)sc32)ccc1F` [Ex 126], the pIC50 at human recombinant PARG was 7.35.
As to `Cn1cc(Cn2c(=O)c3cc(S(=O)(=O)NC4(C)CC4)sc3n(Cc3ccc(F)c(C(=O)N4CCN(C(=O)C5CC5)CC4)c3)c2=O)cn1` [Ex 127], the pIC50 at human recombinant PARG is 6.49.
Still for that read-out and setting: then `Cn1cc(Cn2c(=O)c3cc(S(=O)(=O)NC4(C)CC4)sc3n(Cc3ccc(Oc4ccc(F)cc4)nc3)c2=O)cn1` [Ex 128], with 6.89.
For `Cn1cc(Cn2c(=O)c3cc(S(=O)(=O)NC4(C)CC4)sc3n(Cc3nc4c(s3)CCCC4)c2=O)cn1` [Ex 129], the pIC50 at human recombinant PARG was 7.34.
For the compound `Cn1cc(Cn2c(=O)c3cc(S(=O)(=O)NC4(C)CC4)sc3n(Cc3ccc4c(c3)CC(=O)N4)c2=O)cn1` [Ex 130, 3-((1-Methyl-1H-pyrazol-4-yl)methyl)-N-(1-methylcyclopropyl)-2,4-dioxo-1-((2-oxoindolin-5-yl)methyl)-1,2,3,4-tetrahydrothieno[2,3-d]pyrimidine-6-sulfonamide], in the assay with Kuramochi cells, the pIC50 was 4.93.
With `Cn1cc(Cn2c(=O)c3cc(S(=O)(=O)NC4(C)CC4)sc3n(Cc3ccc4c(c3)NC(=O)C4)c2=O)cn1` [Ex 131], the pIC50 at human recombinant PARG is 8.20.
On the same count and under the same terms, under `Cn1cc(Cn2c(=O)c3cc(S(=O)(=O)NC4(C)CC4)sc3n(CCc3ccccc3)c2=O)cn1` [Ex 132] stands 6.18.
Consider `COc1c(C)cnc(Cn2c(=O)n(Cc3cnn(C)c3)c(=O)c3cc(S(=O)(=O)NC4(C)CC4)sc32)c1C` [Ex 133], for which the pIC50 on human recombinant PARG was 5.93.
On to `Cc1c[nH]c(Cn2c(=O)n(Cc3cnn(C)c3)c(=O)c3cc(S(=O)(=O)NC4(C)CC4)sc32)c(C)c1=O` [Ex 134], for which, on human recombinant PARG, the pIC50 was 5.22.
As for `Cc1cc(Cn2c(=O)n(Cc3cnn(C)c3)c(=O)c3cc(S(=O)(=O)NC4(C)CC4)sc32)ccc1F` [Ex 135], the pIC50 on human recombinant PARG was 7.43.

The values are drawn from patent US20240083908A1, “TETRAHYDROTHIENOPYRIMIDINESULFONAMIDE COMPOUNDS” (priority 2020, published 2024).
